Assay results from EP0537947A1, “Naphthoquinone derivatives for the treatment of parasitic infections” (THE WELLCOME FOUNDATION LIMITED, priority 1991, dated 1993).
Structures can show the parent of a compound that is named as a salt. Where two headings read alike, the source gives them in different places.

Assays:
Plasmodium yoelii = assay: In vivo activity against Plasmodium yoelii in mice (modified 4-day suppressive test)
Method: Compounds A and B were administered orally and intravenously, and compound (I) was administered orally only, in the manner described below.
The test method is a modified version of the 4-day suppressive test. The YM strain of P.yoelii was maintained in mice by twice weekly passage. Infected blood was collected and diluted with normal saline to give an inoculum of 3x10⁶ parasitized enythrocytes/ml. On the morning of Day 1 the test animals (male CD-1 mice weighing 18-20g) were infected intravenously via the tail vein with 0.1ml of inoculum/mouse.
Test compounds A, B and (I) were formulated by ball milling in 0.25% celacol with stainless steel balls. The total requirement was formulated at the beginning of a test and thereafter stored at 4°C.
Each test compound was administered orally (p.o.) to four or more usually five groups of mice, each group receiving a different dose level (dilution). A further group of mice was administered celacol only, as a control (ie. a total of 30 mice are used to obtain each ED₅₀). The mice were dosed orally in the late afternoon of Day 1 and in the early morning and late afternoon of days 2, 3 and 4, giving a total of seven doses in four days or 24 hours post-infection i.e. on day 2 when given as a single dose.
I.v. formulations of test Compounds A and B were prepared by dissolving the compound in water immediately before use, and administered via the tail vein as a single dose 24 hours post-infection, i.e. on day 2.
On the morning of day 5 smears of tail blood were prepared from each mouse and the parasitaemia counted. Data were analysed to yield ED₅₀ values by the best fit to a sigmoidal dose response curve.

Solubility in water = type: physicochemical; settings: statement in words
[1] = Plasmodium yoelii, po, dosing schedule 1 x p.o. (single dose 24 hours post-infection), YM strain of P.yoelii, male CD-1 mice, parasitaemia on day 5, read-out: ED50

Molecule	ED50 (Plasmodium yoelii; [1])	ED50 (Plasmodium yoelii; Plasmodium yoelii, po, dosing schedule 7 x p.o. (seven doses in four days), YM strain of P.yoelii, male CD-1 mice, parasitaemia on day 5, read-out: ED50)	Weight adjusted ED50 (Plasmodium yoelii; 7 x p.o., calculated in terms of the amount of compound (I) administered)	ED50 (Plasmodium yoelii; dosing schedule 7 x p.o. (seven doses in four days), YM strain of P.yoelii, male CD-1 mice, parasitaemia on day 5)	solubility in water (Solubility in water)	ED50 (Plasmodium yoelii; Plasmodium yoelii, iv, 1 x i.v., calculated in terms of the amount of compound (I) administered, read-out: Weight adjusted ED50)	ED50 (Plasmodium yoelii; Plasmodium yoelii, iv, dosing schedule 1 x i.v. (single dose 24 hours post-infection, dissolved in water), YM strain of P.yoelii, male CD-1 mice, parasitaemia on day 5, read-out: ED50)	ED50 (Plasmodium yoelii; Plasmodium yoelii, po, 1 x p.o., calculated in terms of the amount of compound (I) administered, read-out: Weight adjusted ED50)
O=C1C(O)=C([C@H]2CC[C@H](c3ccc(Cl)cc3)CC2)C(=O)c2ccccc21 [Compound (I), 2-[trans-4-(4-Chlorophenyl)cyclohexyl]-3-hydroxy-1,4-naphthoquinone, reference compound]	0.09 mg/kg	0.03 mg/kg						
3-[trans-4-(4-Chlorophenyl)cyclohexyl]-1,4-dioxo-2-naphthylphosphate bis diethanolamine salt [Compound (A)]			0.056 mg/kg	0.1 mg/kg				
O=C1C(OP(=O)(O)O)=C([C@H]2CC[C@H](c3ccc(Cl)cc3)CC2)C(=O)c2ccccc21 [Compound (B), 3-[trans--4-(4-Chlorophenyl)cyclohexyl]-1,4-dioxo-2-naphthylphosphate N-methylglucosamine salt]	0.23 mg/kg				readily soluble in cold water	0.12 mg/kg	0.27 mg/kg	0.1 mg/kg
